Patent publication US10131642B1, “Aldosterone synthase inhibitors” (Boehringer Ingelheim International GmbH, priority 2015, dated 2018)

What was measured:
[1] = biological target: cortisol synthase (CYP11B1) (Macaca fascicularis, UniProt A0A2K5ULY1); experiment: Inhibition of cortisol synthesis (cynomolgus adrenal mitochondria, cortisol by mass spectrometry); assay type: biochemical, cynomolgus monkey; conditions: cynomolgus adrenal gland mitochondria, 11-deoxycortisol as substrate, cortisol measured as product; read-out: CYP11B1 Inhibition IC50
Description: The aldosterone synthase and cortisol synthase inhibition assays employ cynomolgus adrenal gland mitochondria as the source of aldosterone synthase (CYP11B2) and cortisol synthase (CYP11B1). Mitochondria are prepared from frozen cynomolgus monkey adrenal glands according to Method A described in by J. D. McGarry et al. (Biochem. J., 1983, 214, 21-28), with a final resuspension in the AT buffer described in R. Yamaguchi et al. (Cell Death and Differentiation, 2007, 14, 616-624), frozen as aliquots in liquid nitrogen and stored at −80° C. until use. Activity of CYP11B2 and CYP11B1 in these preparations is defined as the amount of enzyme that generates 1 pmol of product in one hour under the conditions described. Dose dependent inhibition is quantified by the inclusion of compound at various concentrations. Maximum activity (100%) is defined by reactions containing NADPH, but without compound. Activities at each concentration are expressed as a percentage of the maximum activity (y-axis) and plotted against concentration of compound (x-axis) and the concentration corresponding to 50% activity (IC50) determined using the XLFit curve-fitting program using a 4-parameter logistic model. Assays are performed as for aldosterone synthase except for the use of 150 units of CYP11B1, 11-deoxycortisol as substrate and cortisol measured as product.

[2] = biological target: T1, aldosterone synthase (CYP11B2) (Macaca fascicularis, UniProt A0A2K5UPL9); experiment: Inhibition of aldosterone synthase (cynomolgus adrenal mitochondria, aldosterone by mass spectrometry); assay type: biochemical, cynomolgus monkey; conditions: cynomolgus adrenal gland mitochondria, 2 μM corticosterone substrate, 90 minutes at 37° C.
T1 construct: cynomolgus adrenal gland mitochondria as the source of aldosterone synthase (CYP11B2); from tissue; host or cells: cynomolgus monkey adrenal gland mitochondria
T1 sequence (A0A2K5UPL9 1-503): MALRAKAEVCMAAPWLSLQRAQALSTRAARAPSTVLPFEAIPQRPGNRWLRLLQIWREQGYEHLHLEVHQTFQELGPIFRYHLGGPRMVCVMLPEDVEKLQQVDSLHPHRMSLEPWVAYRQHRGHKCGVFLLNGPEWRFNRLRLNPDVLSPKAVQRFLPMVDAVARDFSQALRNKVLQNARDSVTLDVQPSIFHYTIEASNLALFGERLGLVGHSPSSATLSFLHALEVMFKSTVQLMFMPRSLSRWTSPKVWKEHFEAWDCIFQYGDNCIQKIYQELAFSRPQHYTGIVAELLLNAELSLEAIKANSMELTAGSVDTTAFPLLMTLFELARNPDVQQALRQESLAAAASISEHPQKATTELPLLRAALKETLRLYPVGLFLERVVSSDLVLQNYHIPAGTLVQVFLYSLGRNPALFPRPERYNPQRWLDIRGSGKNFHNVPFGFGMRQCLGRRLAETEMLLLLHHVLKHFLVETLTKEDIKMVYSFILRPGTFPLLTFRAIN
Description: The aldosterone synthase and cortisol synthase inhibition assays employ cynomolgus adrenal gland mitochondria as the source of aldosterone synthase (CYP11B2) and cortisol synthase (CYP11B1). Mitochondria are prepared from frozen cynomolgus monkey adrenal glands according to Method A described in by J. D. McGarry et al. (Biochem. J., 1983, 214, 21-28), with a final resuspension in the AT buffer described in R. Yamaguchi et al. (Cell Death and Differentiation, 2007, 14, 616-624), frozen as aliquots in liquid nitrogen and stored at −80° C. until use. Activity of CYP11B2 and CYP11B1 in these preparations is defined as the amount of enzyme that generates 1 pmol of product in one hour under the conditions described.
Assays are performed in 96-well format in a final volume of 60 µL/well, containing 100 mM potassium phosphate, pH 7.4, 1% (v/v) DMSO, and additionally, 2 μM of corticosterone and 50 units of CYP11B2 activity. Reactions are started by the addition of NADPH to 1 mM and allowed to proceed for 90 minutes at 37° C. Reactions are terminated by the addition of 60 μL of MeCN containing an internal standard for mass spectrometry. One hundred microliters are then transferred to a glass filter plate and centrifuged at 570×g for 5 minutes and the filtrate is collected. Reaction product aldosterone is quantified by mass spectrometry. To determine the assay blank value (0% activity), NADPH is omitted from some reactions.
Dose dependent inhibition is quantified by the inclusion of compound at various concentrations. Maximum activity (100%) is defined by reactions containing NADPH, but without compound. Activities at each concentration are expressed as a percentage of the maximum activity (y-axis) and plotted against concentration of compound (x-axis) and the concentration corresponding to 50% activity (IC50) determined using the XLFit curve-fitting program using a 4-parameter logistic model.

| SMILES | IC50 [1] [µM] | IC50 [2] [nM] |
| --- | --- | --- |
| COCCNC(=O)c1ccc(Cc2onc3c2C(=O)CC(C)(C)C3)cc1 [Cpd 58, 4-(6,6-Dimethyl-4-oxo-4,5,6,7-tetrahydro-benzo[c]isoxazol-3-ylmethyl)-N-(2-methoxy-ethyl)-benzamide] | 3.4 | 89 |
| CN(CCO)C(=O)c1ccc(Cc2onc3c2C(=O)CC(C)(C)C3)cc1 [Cpd 59, 4-(6,6-Dimethyl-4-oxo-4,5,6,7-tetrahydro-benzo[c]isoxazol-3-ylmethyl)-N-(2-hydroxy-ethyl)-N-methyl-benzamide] | 11 | 92 |
| CC1(C)CC(=O)c2c(noc2Cc2ccc(C(=O)NCCS(C)(=O)=O)cc2)C1 [Cpd 61, 4-(6,6-Dimethyl-4-oxo-4,5,6,7-tetrahydro-benzo[c]isoxazol-3-ylmethyl)-N-(2-methanesulfonyl-ethyl)-benzamide] | 7.4 | 91 |
| CC1(C)CC(=O)c2c(noc2Cc2ccc(C(=O)N3CCNC(=O)C3)cc2)C1 [Cpd 62, 6,6-Dimethyl-3-[4-(3-oxo-piperazine-1-carbonyl)-benzyl]-6,7-dihydro-5H-benzo[c]isoxazol-4-one] | 20 | 98 |
| O=C1CC(CC2CC2)Cc2noc(Cc3ccc(C(=O)N4CC[C@@H](O)C4)cc3)c21 (stereo partly drawn) [Cpd 63, 6-Cyclopropylmethyl-3-[4-((R)-3-hydroxy-pyrrolidine-1-carbonyl)-benzyl]-6,7-dihydro-5H-benzo[c]isoxazol-4-one] | 4.1 | 110 |
| CN(CCS(C)(=O)=O)C(=O)c1ccc(Cc2onc3c2C(=O)CC(C)(C)C3)cc1 [Cpd 64, 4-(6,6-Dimethyl-4-oxo-4,5,6,7-tetrahydro-benzo[c]isoxazol-3-ylmethyl)-N-(2-methanesulfonyl-ethyl)-N-methyl-benzamide] | 9.3 | 110 |
| CC1(C)CC(=O)c2c(noc2Cc2ccc(C(=O)N3CC[C@H](O)C3)cc2)C1 [Cpd 65, 3-[4-((S)-3-Hydroxy-pyrrolidine-1-carbonyl)-benzyl]-6,6-dimethyl-6,7-dihydro-5H-benzo[c]isoxazol-4-one] | 7.6 | 110 |
| CC(C)N(CCO)C(=O)c1ccc(Cc2onc3c2C(=O)CC(C)(C)C3)cc1 [Cpd 67, 4-(6,6-Dimethyl-4-oxo-4,5,6,7-tetrahydro-benzo[c]isoxazol-3-ylmethyl)-N-(2-hydroxy-ethyl)-N-isopropyl-benzamide] | 7.3 | 120 |
| C[C@H](O)CNC(=O)c1ccc(Cc2onc3c2C(=O)CC(C)(C)C3)cc1 [Cpd 71, 4-(6,6-Dimethyl-4-oxo-4,5,6,7-tetrahydro-benzo[c]isoxazol-3-ylmethyl)-N-((S)-2-hydroxy-propyl)-benzamide] | 20 | 170 |
| CC1(C)CC(=O)c2c(noc2Cc2ccc(C(=O)N3CCC[C@@H](O)C3)cc2)C1 [Cpd 72, 3-[4-((R)-3-Hydroxy-piperidine-1-carbonyl)-benzyl]-6,6-dimethyl-6,7-dihydro-5H-benzo[c]isoxazol-4-one] | 5.9 | 180 |
| CC1CC(=O)c2c(noc2Cc2ccc(C(N)=O)cc2)C1 (centres unmarked) [Cpd 74, 4-(6-Methyl-4-oxo-4,5,6,7-tetrahydro-benzo[c]isoxazol-3-ylmethyl)-benzamide] | 3 | 82 |
| NC(=O)c1ccc(Cc2onc3c2C(=O)CC2(CCC2)C3)cc1 [Cpd 77, 4-(-6,6-spiro-cyclobutyl-4-oxo-4,5,6,7-tetrahydro-benzo[c]isoxazol-3-ylmethyl)-benzamide] | 0.13 | 12 |
| CC1(C)CC(=O)c2c(noc2Cc2ccc(OCCCC(N)=O)cc2)C1 [Cpd 78] | 3.3 | 24 |
| CNC(=O)CCOc1ccc(Cc2onc3c2C(=O)CC(C)(C)C3)cc1 [Cpd 80, 3-[4-(6,6-Dimethyl-4-oxo-4,5,6,7-tetrahydro-benzo[c]isoxazol-3-ylmethyl)-phenoxy]-N-methyl-propionamide] | 1.8 | 29 |

The remaining lines, values ahead:

| IC50 [1] [µM] | IC50 [2] [nM] | SMILES |
| --- | --- | --- |
| 2.6 | 80 | O=C1CC(Cc2ccccc2)Cc2noc(Cc3ccc(C(=O)N4CC[C@@H](O)C4)cc3)c21 (stereo partly drawn) [Cpd 57, 6-Benzyl-3-[4-((R)-3-hydroxy-pyrrolidine-l-carbonyl)-benzyl]-6,7-dihydro-5H-benzo[c]isoxazol-4-one] |
| 5.9 | 94 | CC1(C)CC(=O)c2c(noc2Cc2ccc(C(=O)N3CCC[C@H](O)C3)cc2)C1 [Cpd 60, 3-[4-((S)-3-Hydroxy-piperidine-1-carbonyl)-benzyl]-6,6-dimethyl-6,7-dihydro-5H-benzo[c]isoxazol-4-one] |
| 5 | 120 | CC1CC(=O)c2c(noc2Cc2ccc(C(=O)N3CCN(C)C(=O)C3)cc2)C1 (stereo not drawn) [Cpd 66, 6-Methyl-3-[4-(4-methyl-3-oxo-piperazine-l-carbonyl)-benzyl]-6,7-dihydro-5H-benzo[c]isoxazol-4-one] |
| 7.8 | 160 | CC1(C)CC(=O)c2c(noc2Cc2ccc(C(=O)NCCC#N)cc2)C1 [Cpd 68, N-(2-Cyano-ethyl)-4-(6,6-dimethyl-4-oxo-4,5,6,7-tetrahydro-benzo[c]isoxazol-3-ylmethyl)-benzamide] |
| 13 | 160 | CC1(C)CC(=O)c2c(noc2Cc2ccc(C(=O)NCC3(O)CC3)cc2)C1 [Cpd 69, 4-(6,6-Dimethyl-4-oxo-4,5,6,7-tetrahydro-benzo[c]isoxazol-3-ylmethyl)-N-(1-hydroxy-cyclopropylmethyl)-benzamide] |
| 11 | 160 | CC1(C)CC(=O)c2c(noc2Cc2ccc(C(=O)NCC3(CO)CCCC3)cc2)C1 [Cpd 70, 4-(6,6-Dimethyl-4-oxo-4,5,6,7-tetrahydro-benzo[c]isoxazol-3-ylmethyl)-N-(1-hydroxymethyl-cyclopentylmethyl)-benzamide] |
| 23 | 230 | C[C@@H](O)CNC(=O)c1ccc(Cc2onc3c2C(=O)CC(C)(C)C3)cc1 [Cpd 73, 4-(6,6-Dimethyl-4-oxo-4,5,6,7-tetrahydro-benzo[c]isoxazol-3-ylmethyl)-N-((R)-2-hydroxy-propyl)-benzamide] |
| 15 | 100 | CC1(C)CC(=O)c2c(noc2Cc2ccc(C(N)=O)cc2)C1 [Cpd 75, 4-(6,6-Dimethyl-4-oxo-4,5,6,7-tetrahydro-benzo[c]isoxazol-3-ylmethyl)-benzamide] |
| 0.53 | 25 | CC(C)C1CC(=O)c2c(noc2Cc2ccc(C(N)=O)cc2)C1 (centres unmarked) [Cpd 76, 4-(6-Isopropyl-4-oxo-4,5,6,7-tetrahydro-benzo[c]isoxazol-3-ylmethyl)-benzamide] |
| 7.8 | 23 | CN(C)C(=O)CCCOc1ccc(Cc2onc3c2C(=O)CC(C)(C)C3)cc1 [Cpd 79] |
| 2.5 | 35 | CC1(C)CC(=O)c2c(noc2Cc2ccc(OCCC(N)=O)cc2)C1 [Cpd 81, 3-[4-(6,6-Dimethyl-4-oxo-4,5,6,7-tetrahydro-benzo[c]isoxazol-3-ylmethyl)-phenoxy]-propionamide] |
